Structures can show the parent of a compound that is named as a salt. Where two headings read alike, the source gives them in different places.
Tests used:
Human recombinant PTP1B = molecular target: T1, Human recombinant PTP1B (Homo sapiens, UniProt P18031); format: biochemical
T1 construct: made in house
T1 sequence (P18031 1-435): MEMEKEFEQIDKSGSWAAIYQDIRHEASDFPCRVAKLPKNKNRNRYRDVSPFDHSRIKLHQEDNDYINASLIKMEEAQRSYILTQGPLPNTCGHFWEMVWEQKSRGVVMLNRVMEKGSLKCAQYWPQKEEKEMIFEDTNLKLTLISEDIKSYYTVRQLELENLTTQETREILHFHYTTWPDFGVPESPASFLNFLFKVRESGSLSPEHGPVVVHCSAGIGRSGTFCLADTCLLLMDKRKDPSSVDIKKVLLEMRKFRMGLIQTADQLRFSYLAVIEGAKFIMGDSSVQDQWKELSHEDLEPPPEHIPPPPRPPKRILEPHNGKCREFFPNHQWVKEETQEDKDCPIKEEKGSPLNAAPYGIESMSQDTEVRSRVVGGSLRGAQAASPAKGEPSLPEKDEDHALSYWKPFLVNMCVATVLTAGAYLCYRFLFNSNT

[1] = tested on: rat hepatic microsomal PTPases; settings: PTPase activity, compound at 50 μM

IC50 (Human recombinant PTP1B; read-out: IC50) [nM]	% Change from Control [1] [%]	SMILES	IC50 (Human recombinant PTP1B) [nM]
1520	-12.78	COC(=O)[C@H](Cc1ccccc1)Oc1c(Br)cc(-c2c3ccccc3c(Br)c3sc4ccccc4c23)cc1Br [Example 110, (S)-2-[2,6-Dibromo-4-(6-bromo-benzo[b]naphtho[2,3-d]thiophen-11-yl)-phenoxy]-3-phenyl-propionic acid, methyl ester]	–
31	-82.00	O=C(O)[C@H](CCc1ccccc1)Oc1c(Br)cc(-c2c3ccccc3c(Br)c3sc4ccccc4c23)cc1Br [Example 118]	–
85	-70.01	O=C(O)[C@@H](CCN1Cc2ccccc2C1=O)Oc1c(Br)cc(-c2c3ccccc3c(Br)c3sc4ccccc4c23)cc1Br [Example 124, (2R)-2-[2,6-Dibromo-4-(6-bromo-benzo[b]naphtho[2,3-d]thiophen-11-yl)-phenoxy]-4-(1-oxo-1,3-dihydro-isoindol-2-yl)-butyric acid]	–
341	-64.92	O=C(O)C(Cc1cccnc1)Oc1c(Br)cc(-c2c3ccccc3c(Br)c3sc4ccccc4c23)cc1Br (stereo not shown) [Example 137, 2-[2,6-Dibromo-4-(6-bromo-benzo[b]naphtho[2,3-d]thiophen-11-yl)-phenoxy]-3-pyridin-3-yl-propionic acid]	–
126	-76.58	Cc1c2ccccc2c(-c2cc(Br)c(O[C@H](Cc3ccccc3)C(=O)O)c(Br)c2)c2c1sc1ccccc12 [Example 141]	–
103	-104.68	O=C(O)[C@H](Oc1c(Br)cc(-c2c3ccccc3c(Br)c3sc4ccccc4c23)cc1Br)c1ccccc1 [Example 142, (R)-[2,6-Dibromo-4-(6-bromo-benzo[b]naphtho[2,3-d]thiophen-11-yl)-phenoxy]-phenyl-acetic acid]	–
994	-95.22	O=C(O)C[C@@H](Oc1c(Br)cc(-c2c3ccccc3c(Br)c3sc4ccccc4c23)cc1Br)C(=O)O [Example 152, (R)-2-[2,6-Dibromo-4-(6-bromo-benzo[b]naphtho[2,3-d]thiophen-11-yl)-phenoxy]-succinic acid]	–
26	-71.12	O=C(O)C(Cc1ccc2ccccc2c1)Oc1c(Br)cc(-c2c3ccccc3c(Br)c3sc4ccccc4c23)cc1Br (stereo not shown) [Example 156, 2-[2,6-Dibromo-4-(6-bromo-benzo[b]naphtho[2,3-d]thiophen-11-yl)-phenoxy]-3-naphthalen-2yl-propionic acid]	–
565	-26.86	NC(=O)[C@@H](Cc1ccccc1)Oc1c(Br)cc(-c2c3ccccc3c(Br)c3sc4ccccc4c23)cc1Br [Example 166]	–
994	-17.85	N#CCCNC(=O)[C@@H](Cc1ccccc1)Oc1c(Br)cc(-c2c3ccccc3c(Br)c3sc4ccccc4c23)cc1Br [Example 168]	–
607	-18.79	N#C[C@@H](Cc1ccccc1)Oc1c(Br)cc(-c2c3ccccc3c(Br)c3sc4ccccc4c23)cc1Br [Example 170, (R)-2-[2,6-Dibromo-4-(6-bromo-benzo[b]naphtho[2,3-d]thiophen-11-yl)-phenoxy]-3-phenyl-propionitrile]	–

Further lines, the compound ahead of its results:

SMILES	IC50 (Human recombinant PTP1B; read-out: IC50) [nM]	% Change from Control [1] [%]	IC50 (Human recombinant PTP1B) [nM]
N#Cc1cc(-c2c3ccccc3cc3sc4ccccc4c23)ccc1OCC(=O)O [Example 82, [(4-benzo[b]naphtho[2,3-d]thiophen-11-yl)-2-cyano-phenoxy]-acetic acid]	2000	-39.80	–
O=C(O)COc1cc(-c2c3ccccc3c(Br)c3sc4ccccc4c23)ccc1Br [Example 91, [2-Bromo-5-(6-bromo-benzo[b]naphtho[2,3-d]thiophen-11-yl)-phenoxyl]-acetic acid]	1300	-97.10	–
O=C(O)COc1cc(-c2c3ccccc3c(Br)c3sc4ccccc4c23)c(Br)cc1Br [Example 92, [2,4-Dibromo-5-(6-bromo-benzo[b]naphtho[2.3-d]thiophen-1-yl)-phenoxyl]-acetic acid]	644	-98.16	–
O=C(O)[C@H](Cc1ccccc1)Oc1ccc(-c2c3ccccc3c(Br)c3sc4ccccc4c23)cc1 [Example 114, (S)-2-[4-(6-bromo-benzo[b]naphtho[2,3-d]thiophen-11-yl)-phenoxy]-3-phenyl-propionic acid]	589	-68.03	–
N#Cc1c2ccccc2c(-c2ccc(O[C@H](Cc3ccccc3)C(=O)O)cc2)c2c1sc1ccccc12 [Example 116, (R)-2-[4-(6-Cyano-benzo[b]naphtho[2,3-d]thiophen-11-yl)-phenoxy]-3-phenyl-propionic acid]	765	-61.89	–
O=C(O)[C@@H](Cc1c[nH]cn1)Oc1c(Br)cc(-c2c3ccccc3c(Br)c3sc4ccccc4c23)cc1Br [Example 120, (R)-2-[2,6-Dibromo-4-(6-bromo-benzo[b]naphtho[2,3-d]thiophen-11-yl)-phenoxy]-3-(1 H-imidazol-4-yl)-propionic acid, hydrochloride]	541	-17.35	–
O=C(O)[C@@H](Cc1ccccc1)Oc1c(Cl)cc(-c2c3ccccc3c(Br)c3sc4ccccc4c23)cc1Cl [Example 130, (R)-2-[2,6-Dichloro-4-(6-bromo-benzo[b]naphtho[2,3-d]thiophen-11-yl)-phenoxy]l-3-phenyl-propionic acid]	800	-72.14	–
C[C@@H](Oc1c(I)cc(-c2c3ccccc3cc3sc4ccccc4c23)cc1I)C(=O)O [Example 132, (R)-2-(4-Benzo[b]naphtho[2,3-d]thiophen-11-yl-2,6-diiodo-phenoxy)-propionicacid]	311	-49.27	–
CN(C)CCSc1c2ccccc2c(-c2cc(Br)c(O[C@H](Cc3ccccc3)C(=O)O)c(Br)c2)c2c1sc1ccccc12 [Example 133, (R)-2-{2,6-Dibromo-4-[6-(2-dimethylamino-ethylsulfanyl)-benzo[b]naphtho[2,3-d]thiophen-11-yl]-phenoxy}-3-phenyl-propionic acid]	506	-27.89	–
O=C(O)[C@@H](Cc1ccccc1)Oc1c(Br)cc(-c2c3ccccc3c(Sc3ccncc3)c3sc4ccccc4c23)cc1Br [Example 134, (R)-2-{2,6-Dibromo-4-[6-(pyridin-4-ylsulfanyl)-benzo[b]naphtho[2,3-d]thiophen-11-yl]-phenoxy}-3-phenyl-propionic acid]	93	-69.86	–
CC(C)c1cc(-c2c3ccccc3c(Br)c3sc4ccccc4c23)cc(C(C)C)c1O[C@H](C)C(=O)O [Example 140, (R)-2-[4-(6-Bromo-benzo[b]naphtho[2,3-d]thiophen-11-yl)-2,6-diisopropyl-phenoxy)-propionic acid]	204	-71.19	–
C[C@H](Oc1cc(-c2c3ccccc3c(Br)c3sc4ccccc4c23)ccc1Br)C(=O)O [Example 143, (S)-2-[2-Bromo-5-(6-bromo-benzo[b]naphtho[2,3-d]thiophen-11-yl)-phenoxyl]-propionic acid]	1170	-76.98	–
C[C@@H](Oc1cc(-c2c3ccccc3c(Br)c3sc4ccccc4c23)ccc1Br)C(=O)O [Example 144, (R)-2-[2-bromo-5-(6-Bromo-benzo[b]naphtho[2,3-d]thiophen-11-yl)-phenoxyl]-propionic acid]	1130	-85.24	–
O=C(O)[C@@H](CCN1C(=O)c2ccccc2C1=O)Oc1ccc(-c2c3ccccc3cc3sc4ccccc4c23)cc1 [Example 148]	1230	-82.62	–
O=C(O)[C@@H](CCN1C(=O)c2ccccc2C1=O)Oc1ccc(-c2c3ccccc3c(Br)c3sc4ccccc4c23)cc1 [Example 150]	207	-92.46	–
O=P(O)(O)COc1c(Br)cc(-c2c3ccccc3c(Br)c3sc4ccccc4c23)cc1Br [Example 162, [2,6-Dibromo-4-(6-bromo-benzo[b]naphtho[2,3-d]thiophen-11-yl)-phenoxymethyl]-phosphonic acid]	145	-60.67	–
NC(=O)COc1c(Br)cc(-c2c3ccccc3c(Br)c3sc4ccccc4c23)cc1Br [Example 165]	665	-3.12	–
N#CCOc1c(Br)cc(-c2c3ccccc3c(Br)c3sc4ccccc4c23)cc1Br [Example 169, [2,6-Dibromo-4-(6-bromo-benzo[b]naphtho[2.3-d]thiophen-11-yl)-phenoxy]-acetonitrile]	1220	-9.30	–
Brc1cc(-c2c3ccccc3c(Br)c3sc4ccccc4c23)cc(Br)c1OCc1nnn[nH]1 [Example 171, 5-[2,6-Dibromo-4-(6-bromo-benzo[b]naphtho[2,3-d]thiophen-11-yl)-phenoxymethyl]-1 H-tetrazole]	302	-71.04	–
O=P(O)(O)Oc1c(Br)cc(-c2c3ccccc3c(Br)c3sc4ccccc4c23)cc1Br [Example 177, Phosphoric acid Mono-[2,6-dibromo-4-(6-bromo-benzo[b]naphtho[2,3-d]thiophen-11-yl)-phenyl]ester]	–	-69.35	1080
CC(C)(Oc1c(Br)cc(-c2c3ccccc3c(Br)c3sc4ccccc4c23)cc1Br)C(=O)O [Example 178, 2-[2,6-Dibromo-4-(6-bromo-benzo[b]naphtho[2,3-d]thiophen-11-yl)-phenoxy]-2-methyl-propionic acid]	480	-42.41	–
